As usually defined, the IC50 is the point on the concentration scale where inhibition reaches its midpoint.

The target in the test is T1, stearoyl-CoA desaturase (SCD) (Rattus norvegicus, UniProt P07308).
T1 construct: The microsomes were quickly thawed and added to assay buffer so that a concentration of 0.4 mg/ml was achieved; from tissue
T1 sequence (P07308 1-358): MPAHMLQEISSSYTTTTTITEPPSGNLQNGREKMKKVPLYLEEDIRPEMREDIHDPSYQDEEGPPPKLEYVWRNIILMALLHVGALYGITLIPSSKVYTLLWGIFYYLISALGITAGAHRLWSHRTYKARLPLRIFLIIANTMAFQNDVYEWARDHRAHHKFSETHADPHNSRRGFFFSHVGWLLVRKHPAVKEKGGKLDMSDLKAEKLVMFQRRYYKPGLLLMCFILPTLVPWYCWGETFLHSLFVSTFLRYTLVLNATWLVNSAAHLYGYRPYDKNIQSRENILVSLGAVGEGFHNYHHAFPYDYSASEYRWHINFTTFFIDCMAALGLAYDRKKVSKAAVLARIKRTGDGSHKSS
Kind of test: SCD assay with rat liver microsomes ([3H]stearoyl CoA, adapted from Talamo and Bloch). The class given is biochemical. The settings on record: Table 2 (Example 21, procedures of Example 20); rat liver microsomes, [3H]stearoyl CoA substrate. Put shortly: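 Liver microsomes came from diet-induced male Sprague Dawley rats and were used at 0.2 mg/ml final. Assay buffer was Tris pH 7.2 with NADH, ATP, CoA, MgCl2 and 0.1% BSA. Compounds were preincubated 30 min, then reacted 45 min at room temperature with [3H]stearoyl-CoA; after TCA stop and Bio-Bead cleanup, supernatant radioactivity was counted by scintillation.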
(Microsomes from liver hold many membrane-bound enzymes, among them those of drug oxidation.)
On to `Cc1ccccc1OCCCn1cnc2ccc(NC(=O)CO)cc2c1=O` [compound 53, 2-hydroxy-N-(4-oxo-3-(3-(o-tolyloxy)propyl)-3,4-dihydroquinazolin-6-yl)acetamide], for which the IC50 was 100 nM.
As for `O=C(Nc1ccc2ncn(CCCCOc3cc(Cl)ccc3Cl)c(=O)c2c1)OCc1ccccc1` [compound 54, benzyl 3-(4-(2,5-dichlorophenoxy)butyl)-4-oxo-3,4-dihydroquinazolin-6-ylcarbamate], the figure is 150 nM; as for `O=C(CO)Nc1ccc2ncn(CCCCOc3cc(Cl)ccc3Cl)c(=O)c2c1` [compound 55, N-(3-(4-(2,5-dichlorophenoxy)butyl)-4-oxo-3,4-dihydroquinazolin-6-yl)-2-hydroxyacetamide], 240 nM.
Compound `O=C(CO)Nc1ccc2ncn(CCCc3ccccc3Cl)c(=O)c2c1` [compound 56, N-(3-(3-(2-chlorophenyl)propyl)-4-oxo-3,4-dihydroquinazolin-6-yl)-2-hydroxyacetamide] showed a concentration for half-maximal inhibition (IC50) of 430 nM.
As for `O=C(Nc1ccc2ncn(CCOc3ccccc3Cl)c(=O)c2c1)OCc1ccccc1` [compound 57, benzyl 3-(2-(2-chlorophenoxy)ethyl)-4-oxo-3,4-dihydroquinazolin-6-ylcarbamate], the figure is 180 nM; as for `O=C(CO)Nc1ccc2ncn(CCOc3ccccc3Cl)c(=O)c2c1` [compound 58, N-(3-(2-(2-chlorophenoxy)ethyl)-4-oxo-3,4-dihydroquinazolin-6-yl)-2-hydroxyacetamide], 340 nM.
As for `O=C(Nc1ccc2ncn(CCCOc3ccccc3Cl)c(=O)c2c1)OCc1ccccc1` [compound 59, benzyl 3-(3-(2-chlorophenoxy)propyl)-4-oxo-3,4-dihydroquinazolin-6-ylcarbamate], the figure is 45 nM; as for `O=C(CO)Nc1ccc2ncn(CCCOc3ccccc3Cl)c(=O)c2c1` [compound 60, N-(3-(3-(2-chlorophenoxy)propyl)-4-oxo-3,4-dihydroquinazolin-6-yl)-2-hydroxyacetamide], 450 nM.
As for `O=C(CO)Nc1ccc2ncn(Cc3cccc(COc4cc(Cl)ccc4Cl)c3)c(=O)c2c1` [compound 61, N-(3-(3-((2,5-dichlorophenoxy)methyl)benzyl)-4-oxo-3,4-dihydroquinazolin-6-yl)-2-hydroxyacetamide], the figure is 490 nM; as for `O=C(Nc1ccc2ncn(Cc3cccc(COc4cc(Cl)ccc4Cl)c3)c(=O)c2c1)OCc1ccccc1` [compound 62, benzyl 3-(3-((2,5-dichlorophenoxy)methyl)benzyl)-4-oxo-3,4-dihydroquinazolin-6-ylcarbamate], 620 nM.
In turn, `O=C(CO)Nc1ccc2c(=O)n(CCOc3ccccc3Cl)cnc2c1` [compound 63, N-(3-(2-(2-chlorophenoxy)ethyl)-4-oxo-3,4-dihydroquinazolin-7-yl)-2-hydroxyacetamide] registered an IC50 of 4900 nM. This IC50 lies about 7.9-fold higher than the previous one.
As for `O=C(CO)Nc1ccc2ncn(CCCCCOc3cc(Cl)ccc3Cl)c(=O)c2c1` [compound 64, N-(3-(5-(2,5-dichlorophenoxy)pentyl)-4-oxo-3,4-dihydroquinazolin-6-yl)-2-hydroxyacetamide], the figure is 1300 nM; as for `O=C(CO)Nc1ccc2ncn(CCCOc3cccc(Cl)c3Cl)c(=O)c2c1` [compound 65, N-(3-(3-(2,3-dichlorophenoxy)propyl)-4-oxo-3,4-dihydroquinazolin-6-yl)-2-hydroxyacetamide], 640 nM.
Under `O=C(CO)Nc1ccc2ncn(CCCOc3cc(C(F)(F)F)ccc3Cl)c(=O)c2c1` [compound 66, N-(3-(3-(2-chloro-5-(trifluoromethyl)phenoxy)propyl)-4-oxo-3,4-dihydroquinazolin-6-yl)-2-hydroxyacetamide] stands 11000 nM.
With `O=C(CO)Nc1ccc2ncn(CCNC(=O)c3cc(Cl)ccc3Cl)c(=O)c2c1` [compound 67, 2,5-dichloro-N-(2-(6-(2-hydroxyacetamido)-4-oxoquinazolin-3(4H)-yl)ethyl)benzamide], the half-maximal inhibitory concentration (IC50) was 21000 nM.
As for `O=C(CO)Nc1ccc2ncn(CCCOc3ccccc3)c(=O)c2c1` [compound 68, 2-hydroxy-N-(4-oxo-3-(3-phenoxypropyl)-3,4-dihydroquinazolin-6-yl)acetamide], the figure is 23000 nM; as for `O=C(CO)Nc1ccc2ncn(CCNC(=O)c3ccccc3C(F)(F)F)c(=O)c2c1` [compound 69, N-(2-(6-(2-hydroxyacetamido)-4-oxoquinazolin-3(4H)-yl)ethyl)-2-(trifluoromethyl)benzamide], 5200 nM.
Under `O=C(CO)Nc1ccc2ncn(CCCOc3ccc(Cl)cc3)c(=O)c2c1` [compound 70, N-(3-(3-(4-chlorophenoxy)propyl)-4-oxo-3,4-dihydroquinazolin-6-yl)-2-hydroxyacetamide] stands 3100 nM.
As for `O=C(CO)Nc1ccc2ncn(CCNS(=O)(=O)c3cc(Cl)ccc3Cl)c(=O)c2c1` [compound 71, N-(3-(2-(2,5-dichlorophenylsulfonamido)ethyl)-4-oxo-3,4-dihydroquinazolin-6-yl)-2-hydroxyacetamide], the figure is 15000 nM; as for `O=C(CO)Nc1ccc2ncn(CCCNS(=O)(=O)c3cc(Cl)ccc3Cl)c(=O)c2c1` [compound 72, N-(3-(3-(2,5-dichlorophenylsulfonamido)propyl)-4-oxo-3,4-dihydroquinazolin-6-yl)-2-hydroxyacetamide], 21000 nM.
On to `O=C(CO)Nc1ccc2ncn(CCCNS(=O)(=O)c3ccccc3C(F)(F)F)c(=O)c2c1` [compound 73, 2-hydroxy-N-(4-oxo-3-(3-(2-(trifluoromethyl)phenylsulfonamido)propyl)-3,4-dihydroquinazolin-6-yl)acetamide], for which half-maximal inhibition (IC50) required 14000 nM. Compared with the last compound, the IC50 is about 1.5-fold lower.
As for `O=C(CO)Nc1ccc2ncn(CCOc3ccc(Cl)cc3)c(=O)c2c1` [compound 74, N-(3-(2-(4-chlorophenoxy)ethyl)-4-oxo-3,4-dihydroquinazolin-6-yl)-2-hydroxyacetamide], the figure is 17000 nM.
As for `O=C(CO)Nc1ccc2ncn(CCOc3cccc(Cl)c3)c(=O)c2c1` [compound 75, N-(3-(2-(3-chlorophenoxy)ethyl)-4-oxo-3,4-dihydroquinazolin-6-yl)-2-hydroxyacetamide], the figure is 1500 nM; as for `Cc1ccccc1OCC(O)Cn1cnc2ccc(NC(=O)CO)cc2c1=O` (centres unmarked) [compound 76, 2-hydroxy-N-(3-(2-hydroxy-3-(o-tolyloxy)propyl)-4-oxo-3,4-dihydroquinazolin-6-yl)acetamide], 4000 nM; as for `O=C(Nc1cnc2ncn(Cc3ccc(Cl)c(Cl)c3)c(=O)c2c1)OCc1ccccc1` [compound 77, benzyl 3-(3,4-dichlorobenzyl)-4-oxo-3,4-dihydropyrido[2,3-d]pyrimidin-6-ylcarbamate], 360 nM.
As for `O=C(CO)Nc1cnc2ncn(Cc3ccc(Cl)c(Cl)c3)c(=O)c2c1` [compound 78, N-(3-(3,4-dichlorobenzyl)-4-oxo-3,4-dihydropyrido[2,3-d]pyrimidin-6-yl)-2-hydroxyacetamide], the figure is 180 nM; as for `O=C(CO)Nc1cnc2ncn(Cc3ccc(Cl)cc3)c(=O)c2c1` [compound 79, N-(3-(4-chlorobenzyl)-4-oxo-3,4-dihydropyrido[2,3-d]pyrimidin-6-yl)-2-hydroxyacetamide], 1700 nM.
`O=C(Nc1cnc2ncn(Cc3ccc(Cl)cc3)c(=O)c2c1)OCc1ccccc1` [compound 80, benzyl 3-(4-chlorobenzyl)-4-oxo-3,4-dihydropyrido[2,3-d]pyrimidin-6-ylcarbamate] registered an IC50 of 78 nM.
Under `O=C(NCCO)c1ccc2ncn(Cc3ccc(Cl)c(Cl)c3)c(=O)c2c1` [compound 81, 3-(3,4-dichlorobenzyl)-N-(2-hydroxyethyl)-4-oxo-3,4-dihydroquinazoline-6-carboxamide] stands 2700 nM.
Under `COCCNC(=O)c1ccc2ncn(Cc3ccc(Cl)c(Cl)c3)c(=O)c2c1` [compound 82, 3-(3,4-dichlorobenzyl)-N-(2-methoxyethyl)-4-oxo-3,4-dihydroquinazoline-6-carboxamide] stands 1500 nM; under `COCCNC(=O)c1ccc2c(=O)n(Cc3ccc(Cl)c(Cl)c3)cnc2c1` [compound 83, 3-(3,4-dichlorobenzyl)-N-(2-methoxyethyl)-4-oxo-3,4-dihydroquinazoline-7-carboxamide], 580 nM; under `O=C(NCCO)c1ccc2c(=O)n(Cc3ccc(Cl)c(Cl)c3)cnc2c1` [compound 84, 3-(3,4-dichlorobenzyl)-N-(2-hydroxyethyl)-4-oxo-3,4-dihydroquinazoline-7-carboxamide], 630 nM.
Under `O=C(NCc1ccccc1)c1ccc2c(=O)n(Cc3ccc(Cl)c(Cl)c3)cnc2c1` [compound 85, N-benzyl-3-(3,4-dichlorobenzyl)-4-oxo-3,4-dihydroquinazoline-7-carboxamide] stands 950 nM.
Turning to `O=C(NCCCO)c1ccc2c(=O)n(Cc3ccc(Cl)c(Cl)c3)cnc2c1` [compound 86, 3-(3,4-dichlorobenzyl)-N-(3-hydroxypropyl)-4-oxo-3,4-dihydroquinazoline-7-carboxamide], the IC50 was 7700 nM.
Under `O=C(NCCOc1ccccc1)c1ccc2c(=O)n(Cc3ccc(Cl)c(Cl)c3)cnc2c1` [compound 87, 3-(3,4-dichlorobenzyl)-4-oxo-N-(2-phenoxyethyl)-3,4-dihydroquinazoline-7-carboxamide] stands 1700 nM.

The record behind these values is patent US20090105283A1, “3-HYDROQUINAZOLIN-4-ONE DERIVATIVES FOR USE AS STEAROYL CoA DESATURASE INHIBITORS” (priority 2007, published 2009).
